Laboratory results as given in paper PMC9077470 (RSC Advances, 2018).
In brackets after ≈: the same amount, converted by molar mass.

Assays:
[1] = Partition coefficients in n-octanol/phosphate buffer (pH 7.4); assay type: physicochemical; details: means ± SD, n = 3
Method: The phosphate buffer and octanol were mutually saturated at 20–22 °C before use. Samples were dissolved in the aqueous phase and the n-octanol/phosphate buffer mixtures were shaken for 24 h to reach a distribution equilibrium. The volumes of each phase were chosen so that the solute concentration in the aqueous phase, before and after distribution, could readily be measured using HPLC method. The partition coefficients (P) were calculated from the following equation: [drawing 1] where Ci and Cw represent the solute concentrations in the aqueous buffer phase before and after distribution, respectively, Vw represents the volume of the aqueous phase, and Vo is the volume of the octanol phase.[16]

[2] = tested on: TNBS-induced experimental colitis; test: TNBS-induced colitis: disease activity index (DAI); assay type: in vivo, mice; details: for DAI, compared with positive control: vs positive control (5-ASA + sodium butyrate)
Method: Colitis was induced according to the previous study.[18,19] Briefly, after 12 h of fasting, mice were anesthetized with intraperitoneal pentobarbital sodium (35 mg kg^-1) before the induction of colitis. 0.1 mL of 50% (v/v) ethanol contained 2.5% (v/v) TNBS was instilled into the colon 3.5-4 cm from the anus by a gavage needle. The mice were kept in a head-down position for 30 s to prevent leakage of the intracolonic instillation. Mice in the control group received normal saline instead of TNBS solution, a physical mixture of 5-ASA and sodium butyrate was used as the positive control. […] The treatments were given once daily for 5 continuous days starting 24 hours after the induction of colitis. DAI is ranged from 0 to 4 and it is the sum of scores given for body weight loss, stool consistency and presence or absence of fecal blood. The fecal occult blood of mice was evaluated by the ο-tolidine method.[22] A small amount of feces samples were smeared on a white plate. 2-3 drops of ο-tolidine solution (10 g L^-1, dissolved in acetic acid) were added into samples and mixed evenly. Then 2-3 drops of 3% H2O2 solution were added into the mixture, meanwhile, start the time and observe immediately. Scored as: normal, weak positive, green to light green developing over 2 min; +, positive, greenish-blue to deep green developing within 1 min; ++, positive, blue to bluish-green developing within 5-20 s; +++, very strong positive, intense blue color developing immediately.[23]

[3] = tested on: TNBS-induced experimental colitis; test: TNBS-induced colitis: colon index and colonic damage score (CDS); assay type: in vivo, mice; details: for CDS, compared with positive control: vs positive control, p < 0.05; for colon index, compared with positive control: vs positive control (5-ASDB p < 0.05, Ols-DBP p < 0.01)
Method: Colitis was induced according to the previous study.[18,19] Briefly, after 12 h of fasting, mice were anesthetized with intraperitoneal pentobarbital sodium (35 mg kg^-1) before the induction of colitis. 0.1 mL of 50% (v/v) ethanol contained 2.5% (v/v) TNBS was instilled into the colon 3.5-4 cm from the anus by a gavage needle. The mice were kept in a head-down position for 30 s to prevent leakage of the intracolonic instillation. Mice in the control group received normal saline instead of TNBS solution, a physical mixture of 5-ASA and sodium butyrate was used as the positive control. […] The treatments were given once daily for 5 continuous days starting 24 hours after the induction of colitis. At the end of the experiment, all mice were sacrificed and their entire colons were excised, opened longitudinally and washed carefully with normal saline. After dried with filter papers, colons were weighted and the length of colons was measured and recorded. The colon index was calculated as follows:Colon index (g dm^-1) = weight of colon/length of colon The colonic damage score (CDS) of mice in each group was evaluated according to the following criteria: 0, no ulcer and colitis; 1, no ulcer, local congestion; 2, ulcers, no local congestion; 3, ulcer and colitis at only one site; 4, ulcer and colitis at more than one sites; 5, over 2 cm of ulcer surface.[24]

[4] = tested on: SOD, MDA, GSH, GSH-Px in colonic tissues; test: TNBS-induced colitis: levels of SOD, MDA, GSH and GSH-Px in colonic tissues; assay type: in vivo, mice; details: for GSH-Px activities in the colon / MDA levels in the colon / SOD activities in the colon / levels of GSH in the colon: vs TNBS group; for GSH-Px activities in the colon / MDA levels in the colon / SOD activities in the colon / levels of GSH in the colon / effect on decreasing the MDA level, compared with positive control: p < 0.01; for effect on increasing GSH, compared with positive control / effect on increasing GSH-Px, compared with positive control / effect on increasing SOD, compared with positive control / effect on decreasing the MDA level, compared with positive control: vs positive control
Method: Colitis was induced according to the previous study.[18,19] Briefly, after 12 h of fasting, mice were anesthetized with intraperitoneal pentobarbital sodium (35 mg kg^-1) before the induction of colitis. 0.1 mL of 50% (v/v) ethanol contained 2.5% (v/v) TNBS was instilled into the colon 3.5-4 cm from the anus by a gavage needle. The mice were kept in a head-down position for 30 s to prevent leakage of the intracolonic instillation. Mice in the control group received normal saline instead of TNBS solution, a physical mixture of 5-ASA and sodium butyrate was used as the positive control. […] The treatments were given once daily for 5 continuous days starting 24 hours after the induction of colitis. Colon tissue samples were homogenized with normal saline, the homogenate (10%, w/w) was centrifuged at 13 000 rpm for 15 min, and the resulting supernatant was diluted to 1% (w/w) for further assay. The protein levels of the colon homogenate were detected by a BCA protein assay kit. Then the activities of SOD and GSH-Px, and the levels of MDA and GSH of samples in each group were measured by the assay kits according to the provider's instructions.

[5] = Aqueous solubility (equilibrium, distilled water); assay type: physicochemical; details: 25 °C, thermodynamic from solid, 25 ± 2 °C, means ± SD, n = 3, read-out: S (aqueous solubility)
Method: The mixtures were placed in an ultrasonic water bath for 10 min and then shaken for 24 h to establish a saturation equilibrium. Upon filtration, the filtrate was diluted with an appropriate amount of water and the mixture was analyzed by HPLC, the concentration of each compound in its saturated solution was calculated.

[6] = In vitro incubation with stomach contents of rats; assay type: in vitro ADME; details: rat stomach contents homogenate, pH 1.2, 37 °C, after 2 h of incubation
Method: (§1) After anesthetized with diethyl ether, rats were sacrificed and their contents of stomach and small intestine were collected and homogenized respectively, the homogenate was diluted with buffer solution (pH 1.2 for stomach contents, pH 6.8 for small intestine contents) to 20% (w/v). […] After 0.25, 0.5, 1.0, 1.5, 2.0, 3.0 and 4.0 h of incubation, 200 μL of samples were collected and replaced with the same volume of blank homogenate, then samples were centrifuged at 13 000 rpm for 5 min, filtered with membrane filter, and analyzed by HPLC. The residual contents of each prodrug in homogenate were calculated and the hydrolysis curves were drawn.

[7] = In vivo incubation in the colon of rats; details: injected into tied rat colon, 6 h
Method: 6 hours later, rats were sacrificed and their colon contents were separated and homogenized in 40 mL of phosphate buffer (pH 7.4). The homogenate was sonicated for 5 min and centrifuged at 13 000 rpm for 5 min, then 0.2 mL of the supernatant was collected and mixed with 0.8 mL of methanol. Finally, samples were centrifuged, filtered and analyzed by HPLC. The residual contents of each prodrug in colon contents were calculated, and the hydrolysis ratio was calculated by the following equation: [drawing 2] where Wr is the residual amount of prodrugs in the colon contents and Wi is the initial amount of prodrugs that administered to rats.

[8] = In vitro incubation with small intestine contents of rats; assay type: in vitro ADME; details: rat small intestine contents homogenate, pH 6.8, 37 °C, after 4 h of incubation
Method: as §1

P (partition coefficient) [1]	logP at 24 h [1]	solubility at 24 h [5] [mg/mL]	residual content of prodrug in stomach contents [6]	hydrolysis ratio after in vivo incubation in rat colons [7]	residual content of prodrug in small intestine contents [8] [%]	Compound	DAI ([2]; TNBS colitis mice, once daily 5 days, equivalent to 100 mg kg^−1 5-ASA, course after treatment)	DAI, compared with positive control [2]	CDS, compared with positive control [3]	GSH-Px activities in the colon [4]	MDA levels in the colon [4]	SOD activities in the colon [4]	levels of GSH in the colon [4]	colon index, compared with positive control [3]	effect on increasing GSH, compared with positive control [4]	effect on increasing GSH-Px, compared with positive control [4]	effect on increasing SOD, compared with positive control [4]	effect on decreasing the MDA level, compared with positive control [4]
2.10 ± 0.24	0.32 ± 0.05	270 ± 30 (≈ 610 mM)	almost completely decomposed	almost hydrolyzed completely	5.5	CCCC(=O)Oc1ccc(N=Nc2ccc(OC(=O)CCC)c(C(=O)O)c2)cc1C(=O)O [Ols-DB, 3,3′-azobis(6-hydroxybenzoicacid)dibutyrate]	most significant effects in the first 4 days	better effects than the positive control	significantly greater than the positive control	increased	significantly decreased	increased	significantly higher					
3.81 ± 0.35	0.58 ± 0.04	80 ± 20 (≈ 218 mM)	63.3%	almost hydrolyzed completely	94.7	CCCC(=O)OCC(COC(=O)CCC)OC(=O)c1cc(N)ccc1O [5-ASDB, 2-(1,3-dibutyroxypropyl)-5-aminosalicylate]		better effects than the positive control	significantly greater than the positive control	increased	significantly decreased	increased	significantly higher	significantly better than the positive control	significantly greater effects	significantly greater effects	significantly greater effects	significantly greater effects
2.94 ± 0.37	0.47 ± 0.06	190 ± 40 (≈ 260 mM)	57.5%	almost hydrolyzed completely	90.4	CCCC(=O)OCC(COC(=O)CCC)OC(=O)c1cc(N=Nc2ccc(O)c(C(=O)OC(COC(=O)CCC)COC(=O)CCC)c2)ccc1O [Ols-DBP]		better effects than the positive control	significantly greater than the positive control	increased	significantly decreased	increased	significantly higher	significantly better than the positive control	significantly greater effects	significantly greater effects	significantly greater effects	significantly greater effects
